{"source": "patent US20050170064A1", "about": "“Plant sterol-containing food, and method for preparing the same” (Eugene Science Inc., priority 2002, published 2005)", "origin": "cited, not measured here", "system": "LDL-C level", "settings": "applied form in an oil phase (margarine)", "data": [{"substance": "sitostanol fatty acid ester", "values": [{"measurement": "Reduction of the LDL-C level", "result": "≤ 16", "unit": "%"}]}]}
